Test results: patent US20130196984A1, “3-AMINO-5-PHENYL-56-DIHYDRO-2H-[1,4]OXAZINES” (Siena Biotech S.p.A., priority 2009, published 2013)
Where a name gives a salt, the structure may show the parent alone.

Key:
[1] = target: T1, BACE2 (Homo sapiens, UniProt Q9Y5Z0); experiment: Assay A: binding studies using SPR based methods, immobilised BACE2; settings: CM5 chip, immobilised BACE2 enzyme ectodomain, acetate buffer pH 4.6, 4% DMSO
T1 construct: BACE2 enzyme ectodomain (derived from plasmid “pET17b-T7-hu proBACE2”); T7 (N); made in house
T1 sequence (Q9Y5Z0 63-473 limits assumed): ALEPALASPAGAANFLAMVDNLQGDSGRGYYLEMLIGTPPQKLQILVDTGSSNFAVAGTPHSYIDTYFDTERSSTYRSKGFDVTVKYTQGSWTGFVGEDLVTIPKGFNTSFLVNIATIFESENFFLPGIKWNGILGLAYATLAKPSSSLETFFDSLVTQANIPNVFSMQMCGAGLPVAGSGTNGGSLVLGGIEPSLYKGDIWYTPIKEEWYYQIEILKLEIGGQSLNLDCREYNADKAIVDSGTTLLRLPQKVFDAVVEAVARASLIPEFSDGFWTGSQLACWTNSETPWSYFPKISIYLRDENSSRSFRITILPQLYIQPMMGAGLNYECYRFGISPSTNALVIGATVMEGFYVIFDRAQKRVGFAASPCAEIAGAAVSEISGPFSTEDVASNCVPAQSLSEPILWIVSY

[2] = target: T2, BACE2 (Rattus norvegicus, UniProt Q6IE75); experiment: Assay for BACE inhibition by measuring cellular TMEM27 cleavage; type: cell-based; settings: INS-TMEM27 (INS1e-derived) cells, ELISA of shed human TMEM27 in supernatant;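 also: inhibitor added 2 h before doxycycline-induced hTMEM27 expression, supernatant collected after further 46 h, endogenous BACE2 activity read as reduced TMEM27 shedding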
T2 construct: endogenous cellular BACE2 in the Ins1e rat cell line; endogenous in cells; host or cells: INS-TMEM27 (INS1e-derived rat cell line with doxycycline-inducible full-length hTMEM27)
T2 sequence (Q6IE75 63-514): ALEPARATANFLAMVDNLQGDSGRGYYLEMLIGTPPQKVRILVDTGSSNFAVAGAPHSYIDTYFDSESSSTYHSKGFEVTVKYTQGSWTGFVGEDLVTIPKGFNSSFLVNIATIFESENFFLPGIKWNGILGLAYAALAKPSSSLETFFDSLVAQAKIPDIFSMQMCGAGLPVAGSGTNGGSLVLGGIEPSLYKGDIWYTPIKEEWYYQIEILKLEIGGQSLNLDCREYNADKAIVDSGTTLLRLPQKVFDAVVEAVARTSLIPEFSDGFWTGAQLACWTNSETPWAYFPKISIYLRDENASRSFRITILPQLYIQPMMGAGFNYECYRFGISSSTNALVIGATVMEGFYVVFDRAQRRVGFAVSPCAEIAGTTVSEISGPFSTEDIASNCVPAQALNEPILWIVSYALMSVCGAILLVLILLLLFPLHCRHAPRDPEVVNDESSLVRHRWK

[3] = target: T3, BACE1 (Homo sapiens, UniProt P56817); experiment: Cellular Abeta-lowering assay; type: cell-based; set-up: endogenous in cells; host or cells: HEK293 stably transfected with human APP695 wt; settings: HEK293 cells stably transfected with human APP wt (APP695), Aβ40 ELISA of supernatant after 18-20 hrs
T3 sequence (P56817 46-501): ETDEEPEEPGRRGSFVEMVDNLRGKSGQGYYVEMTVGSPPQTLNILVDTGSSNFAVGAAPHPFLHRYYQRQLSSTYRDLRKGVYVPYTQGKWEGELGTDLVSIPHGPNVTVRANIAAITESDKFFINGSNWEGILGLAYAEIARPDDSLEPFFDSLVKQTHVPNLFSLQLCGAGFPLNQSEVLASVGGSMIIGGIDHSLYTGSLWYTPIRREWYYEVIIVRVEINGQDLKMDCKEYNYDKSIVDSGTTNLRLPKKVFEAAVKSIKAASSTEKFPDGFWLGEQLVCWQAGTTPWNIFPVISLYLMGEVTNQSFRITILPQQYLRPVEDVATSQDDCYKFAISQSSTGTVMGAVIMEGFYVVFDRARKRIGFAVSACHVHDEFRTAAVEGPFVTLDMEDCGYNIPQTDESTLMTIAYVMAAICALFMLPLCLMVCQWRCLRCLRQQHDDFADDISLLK

[4] = target: T3, BACE1; experiment: Assay A: binding studies using SPR based methods, immobilised BACE1; set-up: 6his-tagged full length BACE 1 expressed in SF9 cells; 6His; made in house; host or cells: SF9 insect cells; settings: CM5 chip, immobilised 6his-tagged full length BACE 1, acetate buffer pH 4.6, 4% DMSO;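 also: KD from a 1:1 kinetic fit (koff/kon) of real-time association and dissociation curves, or for fast binders from end-of-association equilibrium responses plotted against log concentration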

A Kd [1] of 44 nM and an IC50 [2] of 21 nM were found for `CC1(c2cccc(NC(=O)c3ncc(F)cc3F)c2)COCC(N)=N1` (racemic) [Example 1, (RS)-3,5-Difluoro-pyridine-2-carboxylic acid [3-(5-amino-3-methyl-3,6-dihydro-2H-[1,4]oxazin-3-yl)-phenyl]-amide] in this work.

An IC50 [2] of 17 nM and an IC50 [3] of 20 nM were found for `Cc1nc(C(=O)Nc2cccc(C3(C)COCC(N)=N3)c2)co1` (racemic) [Example 12, (RS)-2-methyl-oxazole-4-carboxylic acid [3-(5-amino-3-methyl-3,6-dihydro-2H-[1,4]oxazin-3-yl)-phenyl]-amide] in this work.

A Kd [1] of 8 nM and an IC50 [2] of 6 nM were found for `CC1(c2cc(NC(=O)c3ccc(Cl)cn3)ccc2F)COCC(N)=N1` (racemic) [Example 20, (RS)-5-chloro-pyridine-2-carboxylic acid [3-(5-amino-3-methyl-3,6-dihydro-2H-[1,4]oxazin-3-yl)-4-fluoro-phenyl]-amide] in this work.

An IC50 [2] of 2230 nM and an IC50 [3] of 375 nM were found for `CC1(c2cc(NC(=O)C(F)(F)C(F)(F)F)ccc2F)COCC(N)=N1` (racemic) [Example 26, (RS)—N-[3-(5-Amino-3-methyl-3,6-dihydro-2H-[1,4]oxazin-3-yl)-4-fluoro-phenyl]-2,2,3,3,3-pentafluoro-propionamide] in this work.

A Kd [1] of 141 nM, an IC50 [3] of 26 nM and a Kd [4] of 77 nM were found for `CC1(c2cccc(NC(=O)c3ncc(C(F)(F)F)cc3Cl)c2)COCC(N)=N1` (racemic) [Example 33, 3-Chloro-5-trifluoromethyl-pyridine-2-carboxylic acid [3-((RS)-5-amino-3-methyl-3,6-dihydro-2H-[1,4]oxazin-3-yl)-phenyl]-amide] in this work.

A Kd [1] of over 10000 nM, an IC50 [3] of 1180 nM and a Kd [4] of 194 nM were found for `CC1(c2cc(NC(=O)c3ccc(-c4cnco4)cc3)ccc2F)COCC(N)=N1` (racemic) [Example 52, (RS)—N-[3-(5-amino-3-methyl-3,6-dihydro-2H-[1,4]oxazin-3-yl)-4-fluoro-phenyl]-4-oxazol-5-yl-benzamide] in this work.

A Kd [1] of 1800 nM, an IC50 [2] of 320 nM and a Kd [4] of over 10000 nM were found for `CC1(c2cc(NC(=O)C3(C(F)(F)F)CC3)ccc2F)COCC(N)=N1` (racemic) [Example 57] in this work.

A Kd [1] of 117 nM, an IC50 [3] of 140 nM and a Kd [4] of 112 nM were found for `CC1(c2cccc(NC(=O)c3ccc(OCC4CC4)cn3)c2)COCC(N)=N1` (racemic) [Example 60, 5-cyclopropylmethoxy-pyridine-2-carboxylic acid [3-((RS)-5-amino-3-methyl-3,6-dihydro-2H-[1,4]oxazin-3-yl)-phenyl]-amide hydrochloride] in this work.

A Kd [1] of 4680 nM, an IC50 [3] of 390 nM and a Kd [4] of 440 nM were found for `CC1(c2cccc(NC(=O)c3ccc(OCCF)cn3)c2)COCC(N)=N1` (racemic) [Example 61, 5-(2-fluoro-ethoxy)-pyridine-2-carboxylic acid [3-((RS)-5-amino-3-methyl-3,6-dihydro-2H-[1,4]oxazin-3-yl)-phenyl]-amide hydrochloride] in this work.

A Kd [1] of 7340 nM, an IC50 [3] of 270 nM and a Kd [4] of 5520 nM were found for `CC1(c2cccc(NC(=O)c3ccc(OCC(F)F)cn3)c2)COCC(N)=N1` (racemic) [Example 62, 5-(2,2-difluoro-ethoxy)-pyridine-2-carboxylic acid [3-((RS)-5-amino-3-methyl-3,6-dihydro-2H-[1,4]oxazin-3-yl)-phenyl]-amide hydrochloride] in this work.

A Kd [1] of 1090 nM, an IC50 [3] of 510 nM and a Kd [4] of 3060 nM were found for `CC1(c2cccc(NC(=O)c3ccncn3)c2)COCC(N)=N1` (racemic) [Example 63, pyrimidine-4-carboxylic acid [3-((RS)-5-amino-3-methyl-3,6-dihydro-2H-[1,4]oxazin-3-yl)-phenyl]-amide] in this work.

A Kd [1] of 7820 nM, an IC50 [3] of 660 nM and a Kd [4] of 483 nM were found for `C=CCCOc1ccc(C(=O)Nc2cccc(C3(C)COCC(N)=N3)c2)nc1` (racemic) [Example 64, 5-but-3-enyloxy-pyridine-2-carboxylic acid [3-((RS)-5-amino-3-methyl-3,6-dihydro-2H-[1,4]oxazin-3-yl)-phenyl]-amide] in this work.

A Kd [1] of 1120 nM, an IC50 [3] of 180 nM and a Kd [4] of 2470 nM were found for `Cc1cnc(C(=O)Nc2cccc(C3(C)COCC(N)=N3)c2)cn1` (racemic) [Example 65, 5-methyl-pyrazine-2-carboxylic acid [3-((RS)-5-amino-3-methyl-3,6-dihydro-2H-[1,4]oxazin-3-yl)-phenyl]-amide] in this work.

A Kd [1] of 159 nM, an IC50 [3] of 680 nM and a Kd [4] of 173 nM were found for `CC1(c2cccc(NC(=O)c3ccc(OCc4ccccc4)cn3)c2)COCC(N)=N1` (racemic) [Example 66, 5-benzyloxy-pyridine-2-carboxylic acid [3-((RS)-5-amino-3-methyl-3,6-dihydro-2H-[1,4]oxazin-3-yl)-phenyl]-amide hydrochloride] in this work.

A Kd [1] of 988 nM, an IC50 [3] of 15 nM and a Kd [4] of 93 nM were found for `CC1(c2cc(NC(=O)c3ccc(-c4ccco4)cn3)ccc2F)COCC(N)=N1` (racemic) [Example 76, 5-furan-2-yl-pyridine-2-carboxylic acid [3-((RS)-5-amino-3-methyl-3,6-dihydro-2H-[1,4]oxazin-3-yl)-4-fluoro-phenyl]-amide] in this work.

A Kd [1] of 2600 nM, an IC50 [3] of 800 nM and a Kd [4] of 1440 nM were found for `CC1(c2cc(NC(=O)c3ccc(N4CCCC4)cn3)ccc2F)COCC(N)=N1` (racemic) [Example 77, 5-pyrrolidin-1-yl-pyridine-2-carboxylic acid [3-((RS)-5-amino-3-methyl-3,6-dihydro-2H-[1,4]oxazin-3-yl)-4-fluoro-phenyl]-amide] in this work.

A Kd [1] of 6500 nM, an IC50 [3] of 500 nM and a Kd [4] of 885 nM were found for `CC1(c2cc(NC(=O)c3cc(-c4cccs4)on3)ccc2F)COCC(N)=N1` (racemic) [Example 78, 5-thiophen-2-yl-isoxazole-3-carboxylic acid [3-((RS)-5-amino-3-methyl-3,6-dihydro-2H-[1,4]oxazin-3-yl)-4-fluoro-phenyl]-amide] in this work.

A Kd [1] of 4 nM and an IC50 [2] of 2 nM were found for `C[C@@]1(c2cc(NC(=O)c3ccc(Cl)cn3)ccc2F)COCC(N)=N1` [Example 21, (R)-5-chloro-pyridine-2-carboxylic acid [3-(5-amino-3-methyl-3,6-dihydro-2H-[1,4]oxazin-3-yl)-4-fluoro-phenyl]-amide] in this work.

A Kd [1] of 3 nM and an IC50 [2] of 4 nM were found for `C[C@@]1(c2cc(NC(=O)c3ncc(Cl)cc3Cl)ccc2F)COCC(N)=N1` [Example 34, 3,5-dichloro-pyridine-2-carboxylic acid [3-((R)-5-amino-3-methyl-3,6-dihydro-2H-[1,4]oxazin-3-yl)-4-fluoro-phenyl]-amide] in this work.

A Kd [1] of 2550 nM, an IC50 [3] of 190 nM and a Kd [4] of 208 nM were found for `C[C@@]1(c2cc(NC(=O)c3ccc(C#N)cc3F)ccc2F)COCC(N)=N1` [Example 42, N-[3-((R)-5-amino-3-methyl-3,6-dihydro-2H-[1,4]oxazin-3-yl)-4-fluoro-phenyl]-4-cyano-2-fluoro-benzamide] in this work.

A Kd [1] of 2300 nM, an IC50 [2] of 46 nM and a Kd [4] of 6400 nM were found for `CC1(C)OCC(N)=N[C@]1(C)c1cc(NC(=O)C2(C(F)(F)F)CC2)ccc1F` [Example 55, 1-trifluoromethyl-cyclopropanecarboxylic acid [3-((R)-5-amino-2,2,3-trimethyl-3,6-dihydro-2H-[1,4]oxazin-3-yl)-4-fluoro-phenyl]-amide] in this work.
